Patent US9101600B2, “Compounds as RORγt modulators and uses thereof” (New York University, priority 2010, dated 2015)

How the values were obtained:
RORγ/γt = RORγ/γt (Mus musculus, UniProt P51450, T352K); experiment: RORγ/γt-luc reporter S2 cell assay / HTS (firefly luciferase); settings: for 80% Inhib. @: RORγ/γt reporter, S2 cells, concentration for 80% inhibition
Source text: The Drosophila S2 cell line was originally purchased from Invitrogen and was maintained in Schneider's medium supplemented with 10% heat-inactivated bovine fetal calf serum and antibiotics (Invitrogen). Gal4 DNA binding domain (G4 DBD) corresponding to amino acids 1 through 147 of Gal4 protein was PCR amplified to make a fusion construct with mouse RORγt (amino acids 79 to the carboxyl terminal end) lacking its DNA binding domain. The resulting chimeric gene was subcloned into the copper inducible pMT/V5-His A vector (available from Invitrogen). In a similar manner, Gal4 fusion constructs were prepared with mouse RORα (amino acids 142 to end) or Drosophila DHR3 (amino acids 120 to end).
In order to generate stable cell lines, cells were co-transfected with pMT-G4 DBD-RORγt, pMT-G4 DBD-RORα, pMT-G4 DBD-DHR3, or pMT-G4DBDVP16 and pHygro plasmids (Invitrogen) and screened for resistant colonies in the presence of hygromycin (0.3 mg/mL). More than 150 independent RORγ stable clones with luciferase reporters (pMt-RORγ_luc) were tested for their suitability for the high-throughput screening (HTS) based on the following criteria: high signal-to background ratio in 384- and 1,536-well plates, their high induction rate upon the addition of copper, and RORγ/γt specificity probed by the dsRORγ- or RORγ/γt antagonist-mediated suppression. Positive clones were further transfected with pUAST-firefly luciferase, polIII-Renilla luciferase, and pCoPuro (Iwaki, Figuera et al. 2003) (“Rapid selection of Drosophila S2 cells with the puromycin resistance gene.” Biotechniques 35(3): 482-4, 486.) and selected with puromycin (2.5 ug/ml). […] Using similar methods, stable clones with genomic integration of the luciferase reporters and other reporters were generated such as pMT-RORα_luc, pMT-DHR3_luc, or pMT-VP16_luc.
600 G4 DBD-RORγ/γt-luc reporter (#25) or G4 DBD-VP16-luc reporter cells were distributed into each well of 1,536-well white bottom plates in 4 μl S2 cell culture volume containing hygromicin (300 μg/ml) and puromycin (2 μg/ml). Small compounds in seven different concentrations range from 46 μM to 1.7 nM were pin-transferred (23 nl) by a robot (Inglese et al., 2006, Proc. Natl. Acad. Sci. 103:11473-8). […] After 20-hour incubation at ambient temperature, 1.5 μl firefly luciferase detection mix was added and the luciferase activities were measured in 10 min. ViewLux luminometers were used for measuring luciferase signal.
Since their cognate DNA binding sites were not well characterized, the DNA binding domains (DBD) of RORγ/γt, RORα(mouse homolog for PORγ), and DHR3 (Drosophila orthologue for ROR family proteins) were replaced with the heterologous yeast GAL4 DBD. The transcriptionally active domain of general transcriptional activator VP16 was also fused with GAL4 DBD.

[1] = tested on: mouse Th17 cell differentiation; experiment: Cytokine induced mouse Th17 cell differentiation (IL17a production, FACS); format: cell-based; settings: for percentage of mouse Th17 cells (IL17a production): compound added Day 1, analyzed Day 4
Method: Cytokine induced mouse Th17 cells differentiation. Effects on mouse endogenous RORγt in a relevant physiological setting were determined by testing compounds in the Th17 cell differentiation assay. […] Th1 or regulatory T cell differentiation was used as a counter-screen method to select specific compounds that only affect Th17 cell differentiation without having pleiotrophic effects on general T cell proliferation or cytokine production.
Naive CD4 T cells were cultured with CD3/CD28 stimulatory antibodies in presence of TGFβ and IL6. Compounds were added on Day 1 and cells were analyzed on Day 4. Numbers shown in Table 3 indicate the percentage of mouse Th17 cells.
CD25^−, CD62L^+, and CD44^int-high cells were sorted from B6 mice.

[2] = tested on: VP16-luc, RORα-luc, and DHR3-luc reporter S2 cell lines; experiment: S2 cell reporter specificity test on other closely related reporters; format: cell-based; settings: S2 cell assay

RORγ/γt, sequence (P51450 with tags, fused parts or gaps T352K): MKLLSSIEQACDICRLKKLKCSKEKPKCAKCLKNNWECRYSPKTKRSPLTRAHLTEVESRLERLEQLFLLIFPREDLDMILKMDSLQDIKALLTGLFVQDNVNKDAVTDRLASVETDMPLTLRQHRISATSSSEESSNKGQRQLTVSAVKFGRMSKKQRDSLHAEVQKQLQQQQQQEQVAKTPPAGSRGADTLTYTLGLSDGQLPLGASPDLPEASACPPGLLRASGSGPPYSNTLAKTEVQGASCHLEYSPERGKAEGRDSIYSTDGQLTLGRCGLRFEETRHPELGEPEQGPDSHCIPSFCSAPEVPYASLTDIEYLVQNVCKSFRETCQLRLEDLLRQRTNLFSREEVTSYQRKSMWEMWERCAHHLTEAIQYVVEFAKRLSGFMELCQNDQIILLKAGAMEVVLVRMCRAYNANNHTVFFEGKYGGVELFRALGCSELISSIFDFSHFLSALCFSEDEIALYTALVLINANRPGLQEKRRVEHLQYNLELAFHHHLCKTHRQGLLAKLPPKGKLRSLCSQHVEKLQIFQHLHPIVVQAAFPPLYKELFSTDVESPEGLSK

O=C(/C=C/c1ccc(S(=O)(=O)N2CCOCC2)cc1)NC(=S)Nc1ccc(N2CCOCC2)cc1 [MLS000402315-02]
IC50 (RORγ/γt): 2610 nM
80% Inhib. @ (RORγ/γt): 7.292 µM
percentage of mouse Th17 cells (IL17a production) ([1]; 20 μM, DMSO 17% Th17): 4.8%

CCOC(=O)c1sc(NC(=O)c2cc3c(s2)CCC(C)C3)nc1C (stereo not shown) [MLS000566729-02]
IC50 (RORγ/γt): 134 nM
80% Inhib. @ (RORγ/γt): 0.4389 µM
percentage of mouse Th17 cells (IL17a production) ([1]; 5 μM, DMSO 25% Th17): 16.3%
percentage of mouse Th17 cells (IL17a production) ([1]; 20 μM, DMSO 17% Th17): 12.1%

O=C(NC(=S)Nc1nc(-c2ccccc2)cs1)c1cccnc1 [MLS000592121-02]
IC50 (RORγ/γt): 17800 nM
80% Inhib. @ (RORγ/γt): 62.17 µM
percentage of mouse Th17 cells (IL17a production) ([1]; 5 μM, DMSO 25% Th17): 27.7%
percentage of mouse Th17 cells (IL17a production) ([1]; 20 μM, DMSO 17% Th17): 27.7%

COc1ccc(OC)c(NC(=S)N(CCc2c(C)[nH]c3ccccc23)Cc2cccs2)c1 [MLS000696943-02]
IC50 (RORγ/γt): 13400 nM
80% Inhib. @ (RORγ/γt): 35.57 µM
percentage of mouse Th17 cells (IL17a production) ([1]; 5 μM, DMSO 25% Th17): 13.9%
percentage of mouse Th17 cells (IL17a production) ([1]; 20 μM, DMSO 17% Th17): 3.1%

C=C1NN=C(c2ccccc2Br)N1N=Cc1ccc(N(CC)CC)cc1 [MLS000767819-02]
IC50 (RORγ/γt): 2780 nM
80% Inhib. @ (RORγ/γt): 7.562 µM
RORγ/γt reporter activity (in words) (RORγ/γt; S2 cell reporter): suppression of RORγ reporter activity
percentage of mouse Th17 cells (IL17a production) ([1]; 20 μM, DMSO 17% Th17): 10.2%
activity of other closely related reporters (in words) [2]: without having effects

O=C(CCCOc1ccccc1)Nc1nc2ccccc2[nH]1 [MLS000772650-02]
IC50 (RORγ/γt): 8670 nM
80% Inhib. @ (RORγ/γt): 12.38 µM
percentage of mouse Th17 cells (IL17a production) ([1]; 5 μM, DMSO 25% Th17): 16.9%
percentage of mouse Th17 cells (IL17a production) ([1]; 20 μM, DMSO 17% Th17): 9.9%

O=C(CCCN1C(=O)/C(=C/c2ccccc2Cl)SC1=S)Nc1cccnc1 [MLS001034558-02]
IC50 (RORγ/γt): 1600 nM
80% Inhib. @ (RORγ/γt): 8.843 µM
percentage of mouse Th17 cells (IL17a production) ([1]; 5 μM, DMSO 25% Th17): 14.3%
percentage of mouse Th17 cells (IL17a production) ([1]; 20 μM, DMSO 17% Th17): dead

COc1ccc(C(=O)/C=C/c2ccc(OC)cc2OC)c(O)c1 [MLS001048850-02]
IC50 (RORγ/γt): 543 nM
80% Inhib. @ (RORγ/γt): 1.646 µM
percentage of mouse Th17 cells (IL17a production) ([1]; 20 μM, DMSO 17% Th17): 11.9%

CC(C)(C)c1ccc(-c2noc(CCC(=O)Nc3cccnc3)n2)cc1 [MLS001217081-02]
percentage of mouse Th17 cells (IL17a production) ([1]; 20 μM, DMSO 17% Th17): 8.3%

CC(=O)[C@@]1(O)CC[C@H]2[C@H]3C[C@@H](C)C4=CC(=O)C=C[C@]4(C)[C@@]3(F)[C@@H](O)C[C@]21C [NCGC00016442-02]
percentage of mouse Th17 cells (IL17a production) ([1]; 5 μM, DMSO 25% Th17): 4.8%
percentage of mouse Th17 cells (IL17a production) ([1]; 20 μM, DMSO 17% Th17): 2.6%

Cc1ccc(Sc2cncc3sc(C(N)=O)cc23)cc1 [NCGC00167761-02]
IC50 (RORγ/γt): 281 nM
80% Inhib. @ (RORγ/γt): 0.7759 µM
percentage of mouse Th17 cells (IL17a production) ([1]; 5 μM, DMSO 25% Th17): 11.6%
percentage of mouse Th17 cells (IL17a production) ([1]; 20 μM, DMSO 17% Th17): 3.6%

CO[C@H]1[C@@H](O)CC(OC2[C@@H](O)CC(OC3[C@@H](O)C[C@H](OC4CC[C@@]5(C)C(CCC6C5CC(O)[C@]5(C)[C@H](C7=CC(=O)OC7)CCC65O)C4)O[C@@H]3C)O[C@@H]2C)O[C@@H]1C (stereo partly shown) [NCGC00168746-02]
IC50 (RORγ/γt): 1990 nM
80% Inhib. @ (RORγ/γt): 6.27 µM
percentage of mouse Th17 cells (IL17a production) ([1]; 5 μM, DMSO 25% Th17): 4.5%
percentage of mouse Th17 cells (IL17a production) ([1]; 20 μM, DMSO 17% Th17): 1.2%

CC1OC(OC2C(O)CC(OC3C(O)CC(OC4CCC5(C)C(CCC6C5CC(O)C5(C)C(C7=CC(=O)OC7)CCC65O)C4)OC3C)OC2C)CC(O)C1O (stereo not shown) [digoxin, reference compound]
Th17 (percentage of mouse Th17 cells) ([1]; 10 μM, DMSO 26% (Table 5)): 0.91%
